Data on 23 compounds can be found in US10188627B2, “PPAR agonists, compounds, pharmaceutical compositions, and methods of use thereof” (Mitobridge, Inc., priority 2014, dated 2019).

The nature of data set [1]: Pharmacokinetic screening, iv. Format: in vivo. The conditions noted are these: CD-1 mice, 3 mg/kg iv.
The next data set addresses Human PPARδ LBD (Homo sapiens (Human), UniProt Q03181). The data set is described as follows: PPAR delta transactivation (PPARδ Activity Screen, GAL4-PPARδ LBD luciferase reporter in CV-1 cells). In kind it is cell-based. The method, then:
Cell Culture and Transfection:
CV-1 cells were grown in DMEM+10% charcoal stripped FCS. Cells were seeded into 384-well plates the day before transfection to give a confluency of 50-80% at transfection. A total of […] containing 0.64 micrograms pCMX-PPARDelta LBD, 0.1 micrograms pCMXβGal, 0.08 micrograms pGLMH2004 reporter and 0.02 micrograms pCMX empty vector was transfected per well using FuGene transfection reagent according to the manufacturer's instructions (Roche). Cells were allowed to express protein for 48 h followed by addition of compound.
Human PPARδ was used to PCR amplify the PPARδ LBD. […] Ensuing fusions were verified by sequencing.
Compounds: All compounds were dissolved in DMSO and diluted 1:1000 upon addition to the cells. Compounds were tested in quadruple in concentrations ranging from 0.001 to 100 μM. Cells were treated with compound for 24 h followed by luciferase assay. Each compound was tested in at least two separate experiments.
Statistical Methods: The activity of a compound is calculated as fold induction compared to an untreated sample. For each compound the efficacy (maximal activity) is given as a relative activity compared to GW501516, a PPARδ agonist. […] EC50 values were calculated via non-linear regression using GraphPad PRISM (GraphPad Software, San Diego, Calif.).

For another data set, the system named is FGF1a promoter. The data set is described as follows: Luciferase reporter assay of FGF1a promoter co-transfected with PPARδ. In kind it is cell-based. As to conditions: PPARδ with or without ligand.
Data set [2] concerns C57BL6J mice, thermal injury to the TA. The experiment in a line: Muscle regeneration after freeze burn (thermal) injury to the TA, oral GW501516. In kind it is in vivo.

Human PPARδ LBD, sequence (Q03181 128-441 limits assumed): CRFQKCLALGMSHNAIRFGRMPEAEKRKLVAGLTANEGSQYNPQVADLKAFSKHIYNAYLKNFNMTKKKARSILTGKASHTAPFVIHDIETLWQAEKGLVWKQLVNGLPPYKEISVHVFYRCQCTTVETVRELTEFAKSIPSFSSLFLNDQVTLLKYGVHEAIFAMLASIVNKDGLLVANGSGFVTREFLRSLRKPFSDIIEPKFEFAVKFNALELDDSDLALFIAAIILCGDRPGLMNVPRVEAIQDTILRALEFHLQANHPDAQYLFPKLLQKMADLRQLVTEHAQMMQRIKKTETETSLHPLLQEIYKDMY

In the case of `C/C(=C\COc1ccccc1CN(C)C(=O)c1ccc(-c2ccc(C)o2)cc1)CCC(=O)O` [Compound 8e, (E)-4-methyl-6-(2-((N-methyl-4-(5-methylfuran-2-yl)benzamido)methyl)phenoxy)hex-4-enoic acid], in data set [1], the “Mice_PK_IV_AUC (0-inf)” value turned out to be 2166.00 ng·h/mL and the Mice_PK_IV_Cl was determined as 23.10 mL/min/kg. `C/C(=C\COc1ccc(C(F)(F)F)cc1CN(C)C(=O)c1ccc(-c2ccco2)cc1)CCC(=O)O` [Compound 8aa, (E)-6-(2-((4-(furan-2-yl)-N-methylbenzamido)methyl)-4-(trifluoromethyl)phenoxy)-4-methylhex-4-enoic acid] displayed an EC50 on Human PPARδ LBD (CV-1 cells, 24 h) of 683 nM.

In the case of `CC(CCCCOc1ccccc1CN(C)C(=O)c1ccc(-c2ccco2)cc1)C(=O)O` (centres unmarked) [Compound 8o, 6-(2-((4-(furan-2-yl)-N-methylbenzamido)methyl)phenoxy)-2-methylhexanoic acid], in data set [1], the “Mice_PK_IV_AUC (0-inf)” value is 11397.00 ng·h/mL and the Mice_PK_IV_Cl was 2.78 mL/min/kg. In the case of `CN(Cc1ccccc1OCCC[C@@H]1C[C@@H]1C(=O)O)C(=O)c1ccc(-c2ccco2)cc1` (single isomer, unassigned) [Compound 8x], in data set [1], the Mice_PK_IV_Cl was 1.90 mL/min/kg. Take `Cc1cc(SCc2sc(-c3ccc(C(F)(F)F)cc3)nc2C)ccc1OCC(=O)O` [GW501516]: the “induction of FGF1a (luciferase reporter)” value with FGF1a promoter is recorded as “induction of FGF1a”. Moreover, the “Evans Blue dye uptake, proportion of muscle CSA stained” value in data set [2] (5 mg/kg orally, 4 days prior to and 5 days after injury, 5 days after the injury) was 4.9%. Besides, the “expression of inflammatory marker genes by QPCR” value in data set [2] (3 days after the injury) is given as “significantly reduced”. The “reduction in the proportion of stained area” value in data set [2] (5 days after the injury, versus vehicle) was determined as 34.7%. Besides, in data set [2] (9 day treatment), the “PPARδ target genes (PDK4, CPT1b, and catalase) in TA by QPCR” value is reported as “Up-regulation”. Also, the “myoblast proliferation (BrdU positive nuclei)” value in data set [2] (BrdU injection at 48 hours after the injury) is “promoted myoblast proliferation”. Moreover, the “number of quiescent satellite cells” value in data set [2] (after 9 days or 4 weeks of ligand treatment) is “an increase in the number of quiescent satellite cells was not observed”. Consider `C/C(=C\COc1ccccc1CN(C)C(=O)c1ccc(-c2ccco2)c(F)c1)CCC(=O)O` [Compound 8c, (E)-6-(2-((3-fluoro-4-(furan-2-yl)-N-methylbenzamido)methyl)phenoxy)-4-methylhex-4-enoic acid], for which, in data set [1], the “Mice_PK_IV_AUC (0-inf)” value stood at 1459.00 ng·h/mL and the Mice_PK_IV_Cl is 34.30 mL/min/kg. `CN(Cc1ccccc1OCCCCC(C)(C)C(=O)O)C(=O)c1ccc(-c2ccco2)cc1` [Compound 8s, 6-(2-((4-(furan-2-yl)-N-methylbenzamido)methyl)phenoxy)-2,2-dimethylhexanoic acid]: in data set [1], the “Mice_PK_IV_AUC (0-inf)” value was 48454.90 ng·h/mL and the Mice_PK_IV_Cl worked out at 1.03 mL/min/kg. Turning to `CN(Cc1ccccc1OCCCC1CC1C(=O)O)C(=O)c1ccc(-c2ccco2)cc1` (centres unmarked) [Compound 8t, 2-(3-(2-((4-(furan-2-yl)-N-methylbenzamido)methyl)phenoxy)propyl) cyclopropane-1-carboxylic acid], in data set [1], the Mice_PK_IV_Cl came to 3.08 mL/min/kg. As for `CN(Cc1ccccc1OCc1cccc(CC(=O)O)c1)C(=O)c1ccc(-c2ccco2)cc1` [Compound 8q, 2-(3-((2-((4-(furan-2-yl)-N-methylbenzamido)methyl)phenoxy)methyl)phenyl)acetic acid], in data set [1], the “Mice_PK_IV_AUC (0-inf)” value came to 622.50 ng·h/mL and the Mice_PK_IV_Cl was found to be 80.32 mL/min/kg. At Human PPARδ LBD (CV-1, @ 10 uM), `C/C(=C\COc1ccc(C2CC2)cc1CN(C)C(=O)c1ccc(-c2ccco2)cc1)CCC(=O)O` [Compound 8bb, (E)-6-(4-cyclopropyl-2-((4-(furan-2-yl)-N-methylbenzamido)methyl)phenoxy)-4-methylhex-4-enoic acid] returned an inhibition at 10 µM of 58%. As for `C/C(=C\COc1ccc(F)cc1CN(C)C(=O)c1ccc(-c2ccco2)cc1)CCC(=O)O` [Compound 8g, (E)-6-(4-fluoro-2-((4-(furan-2-yl)-N-methylbenzamido)methyl)phenoxy)-4-methylhex-4-enoic acid], in data set [1], the “Mice_PK_IV_AUC (0-inf)” value turned out to be 2195.00 ng·h/mL and the Mice_PK_IV_Cl came out at 23.00 mL/min/kg. Take `CN(Cc1ccccc1OCCC[C@H]1CC1C(=O)O)C(=O)c1ccc(-c2ccco2)cc1` (single isomer, unassigned) [Compound 8u, (1R*,2S*)-2-(3-(2-((4-(furan-2-yl)-N-methylbenzamido)methyl)phenoxy)propyl) cyclopropane-1-carboxylic acid]: in data set [1], the “Mice_PK_IV_AUC (0-inf)” value is 30142.00 ng·h/mL and the Mice_PK_IV_Cl came to 1.70 mL/min/kg. `CN(Cc1ccccc1OCCC[C@H]1C[C@H]1C(=O)O)C(=O)c1ccc(-c2ccco2)cc1` (single isomer, unassigned) [Compound 8w]: the Mice_PK_IV_Cl in data set [1] was determined as 1.70 mL/min/kg.

In the case of `C/C(=C\COc1ccccc1CN(C)C(=O)c1ccc2oc(C)cc2c1)CCC(=O)O` [Compound 8f, (E)-6-(2-((N,2-dimethylbenzofuran-5-carboxamido)methyl)phenoxy)-4-methylhex-4-enoic acid], the Mice_PK_IV_Cl in data set [1] was determined as 40.02 mL/min/kg. As for `C/C(=C\COc1ccc(C)cc1CN(C)C(=O)c1ccc(-c2ccco2)cc1)CCC(=O)O` [Compound 8n, (E)-6-(2-((4-(furan-2-yl)-N-methylbenzamido)methyl)-4-methylphenoxy)-4-methylhex-4-enoic acid], the Mice_PK_IV_Cl in data set [1] was 5.10 mL/min/kg. As for `C/C(=C\CCCOc1ccccc1CN(C)C(=O)c1ccc(-c2ccco2)cc1)C(=O)O` [Compound 8k, (E)-6-(2-((4-(furan-2-yl)-N-methylbenzamido)methyl)phenoxy)-2-methylhex-2-enoic acid], in data set [1], the “Mice_PK_IV_AUC (0-inf)” value is 12804.00 ng·h/mL and the Mice_PK_IV_Cl stood at 3.92 mL/min/kg. Taken in the same sequence, the figures for `C/C(=C\COc1ccccc1CN(C)C(=O)c1ccc(-c2ccco2)c(Cl)c1)CCC(=O)O` [Compound 8d, (E)-6-(2-((3-chloro-4-(furan-2-yl)-N-methylbenzamido)methyl)phenoxy)-4-methylhex-4-enoic acid] were 1443.00 ng·h/mL and 34.65 mL/min/kg. Taken in the same sequence, the figures for `CN(Cc1ccccc1OCc1cccc(CCC(=O)O)c1)C(=O)c1ccc(-c2ccco2)cc1` [Compound 8p, 3-(3-((2-((4-(furan-2-yl)-N-methylbenzamido)methyl)phenoxy)methyl)phenyl)propanoic acid] were 288.90 ng·h/mL and 173.05 mL/min/kg. For the compound `C/C(=C\C(=O)O)CCCOc1ccccc1CN(C)C(=O)c1ccc(-c2ccco2)cc1` [Compound 8i, (E)-6-(2-((4-(furan-2-yl)-N-methylbenzamido)methyl)phenoxy)-3-methylhex-2-enoic acid], in data set [1], the “Mice_PK_IV_AUC (0-inf)” value was determined as 4691.00 ng·h/mL and the Mice_PK_IV_Cl amounted to 10.65 mL/min/kg. As to `Cc1cc2cc(C(=O)N(C)Cc3ccccc3OCCCCCC(=O)O)ccc2o1` [Comparator Cmpd. 3, reference compound], in data set [1], the “Mice_PK_IV_AUC (0-inf)” value is “[AUC (0-inf) = 1788.0 ng * hr/ml]” and the Mice_PK_IV_Cl entry is listed as “Mice_PK_IV_Cl = 27.95 ml/min/kg”. `CN(Cc1ccccc1/C=C/CCCCC(=O)O)C(=O)c1ccc(-c2ccco2)cc1` [Compound 8l, (E)-7-(2-((4-(furan-2-yl)-N-methylbenzamido)methyl)phenyl)hept-6-enoic acid]: in data set [1], the “Mice_PK_IV_AUC (0-inf)” value turned out to be 5161.00 ng·h/mL and the Mice_PK_IV_Cl was 9.68 mL/min/kg.

For the compound `CC(CCOc1ccccc1CN(C)C(=O)c1ccc(-c2ccco2)cc1)CCC(=O)O` (centres unmarked) [Compound 8h, 6-(2-((4-(furan-2-yl)-N-methylbenzamido)methyl)phenoxy)-4-methylhexanoic acid], in data set [1], the “Mice_PK_IV_AUC (0-inf)” value was 11843.00 ng·h/mL and the Mice_PK_IV_Cl came out at 4.20 mL/min/kg. Turning to `CN(Cc1ccccc1OCCC/C=C/C(=O)O)C(=O)c1ccc(-c2ccco2)cc1` [Compound 8cc, (E)-6-(2-((4-(furan-2-yl)-N-methylbenzamido)methyl)phenoxy)hex-2-enoic acid], in data set [1], the “Mice_PK_IV_AUC (0-inf)” value stood at 748.00 ng·h/mL and the Mice_PK_IV_Cl is 66.87 mL/min/kg.
